From patent publication US8440790B2, “Crystal structure of the CCZ-LZ domain of NEMO” (Les Laboratoires Servier, priority 2008, dated 2013)

Columns and labels:
[1] = Gel filtration of the wild-type CC2-LZ protein and the mutant F312A; format: physicochemical; settings: CC2-LZ domain of NEMO; compared with wild-type CC2-LZ protein
Experimental: The gel filtration experiments are carried out at 4° C. on a Superdex 75 HR 10/30 column (Amersham Biosciences). The column is equilibrated in a buffer of Tris/HCl 50 mM pH7.5, NaCl 200 mM, DTE 0.2 mM at 4° C. with a flow rate of 0.5 ml/min. A sample of constant volume (200 μl), at a concentration of 0.3 μM, is injected onto the column at a rate of 0.5 ml/min. The proteins are diluted in the equilibration buffer of the column and allowed to stand at 4° C. for 2 hours before injection in order to allow them to equilibrate. In order to detect elution of the proteins, an RF-10 AXL spectrofluorimeter (Shimadzu) is connected on-line to the AKTA apparatus. The intrinsic fluorescence is recorded, measuring the emission of fluorescence of the tyrosine residues at 310 nm after excitation at 280 nm.

NF-κB pathway = experiment: Functional complementation in NEMO-deficient mouse embryo fibroblasts (Igκ-luciferase reporter, TNFα stimulation); format: cell-based; settings: NEMO-deficient MEF transiently transfected with NEMO variant and Igκ-luciferase reporter; TNFα stimulation for 24 hours; compared with wild-type NEMO
Excerpt: The capabilities of the wild-type NEMO protein and of the above-defined mutant NEMO proteins in restoring activation of the NF-κB pathway in response to the proinflammatory cytokine TNF-α are compared and illustrated in FIG. 5. For that purpose, NEMO-deficient mouse embryo fibroblasts (MEF) are transiently co-transfected on the one hand with the plasmid coding for the Igκ-luciferase reporter gene and on the other hand with the plasmids coding for the various proteins, and then stimulated with TNFα for 24 hours. The wild-type protein completely restores the NF-κB pathway whereas TNFα-dependent activation of the NF-κB pathway is affected by the mutant proteins in differing degrees.
NEMO-deficient mouse embryo fibroblasts (MEF) are cultured in cell culture jars and transiently transfected with a mixture containing: 0.2 μg of a plasmid pEF1 coding for β-galactosidase, 0.5 μg of a plasmid containing the Igk-luciferase reporter gene and 2 μg of plasmids expressing the different variants of NEMO. Twenty-four hours after transfection, the cells are activated with TNFα (20 ng/ml) for 24 hours. The cells are then recovered and then lysed in 110 μl of a buffer of 25 mM Tris/Phosphate pH 7.8, 8 mM MgCl2, 1% Triton, 1 mM dithiothreitol, 15% to glycerol to which a cocktail of proteases is added (Roche). […] The activity of the reporter gene is measured.

inhibition of TNFα-dependent activation of the NF-κB pathway (NF-κB pathway) [%]	Substance	effect of the mutation on the stability of the dimer (elution profile on gel filtration) [1]
78	F312A: human NEMO / CC2-LZ protein with point mutation Phe312Ala (position 305 in the mouse), within the ubiquitin-binding site	does not affect the stability of the dimer
95	A323P: human NEMO protein with point mutation Ala323Pro (position 316 in the mouse), cause of incontinentia pigmenti	
